One data set has as its system asthma patients. Details: method as in PMID 31371445, PMID 10197050. To be noted: clinical trial for asthma, abandoned; cited from earlier work.
The target of data set [1] is T1, Tryptase from a human lung (Homo sapiens, UniProt P20231).
T1 construct: Tryptase from a human lung was purchased from Sigma-Aldrich; purchased Sigma-Aldrich; host or cells: human lung tissue
In words: Measurement of inhibitory activity against tryptase (chromogenic substrate, absorbance at 415 nm). Type of data set: biochemical. To be noted: for IC50: inhibitor alone, 30 min preincubation, mean ± SE (n = 3). How it is done: (§1) Tryptase from a human lung was purchased from Sigma-Aldrich (St. Louis, MO, USA). The activity of tryptase was measured in 100 mM Tris-HCl buffer, pH 8.0, 100 mM glycerol, 0.02 mg/mL heparin sodium salt and 167 µM N-(p-Tosyl)-Gly-Pro-Lys 4-nitroanilide acetate salt (Sigma-Aldrich) as a substrate. Prior to addition of the substrate, the inhibitor was preincubated with the enzyme for 30 min at room temperature to allow the establishment of the enzyme–inhibitor complex. The substrate was then added, and after incubation for 30 min at 37 °C, the enzyme activity was measured from the increase in absorbance at 415 nm. The assays were performed using a 384-well microplate (CELLSTAR 384-well 781182, Greiner Bio-One, Kremsmünster, Austria) and absorbance was measured using a Powerscan 4 plate reader (DS pharma biomedical, Osaka, Japan). The inhibition ratio was calculated using the following equation: inhibition ratio %=1−AE+S+I−AS−AI+Ablank/AE+S−AS×100
A(x): absorbance intensity (415 nm); E: enzyme; S: substrate; I: inhibitor; blank: buffer.
(§2) The inhibitory activity against tryptase and the trypsin of leupeptin and PB8GG’ were measured at 0.1–100 µM, along with that of ellagitannins (carpinin B or carpinin E) isolated by our group at 20–50 µM. The inhibitory activity of a combination of various concentrations of PB8GG’ and 50 µM ellagitannins was also assayed.
(§3) Drawing curves of the inhibition and calculation of IC50 were performed by GraphPad Prism (Version 9.5.1).

Data set [2] has as its target T2, Trypsin from a hog pancreas (Sus scrofa, UniProt P00761).
T2 construct: Trypsin from a hog pancreas was purchased from Nacalai Tesque; purchased Nacalai Tesque; host or cells: hog pancreas
Briefly: Measurement of inhibitory activity against trypsin (Bz-L-Arg-pNA substrate, absorbance at 415 nm). In kind it is biochemical. As for the experimental part: Trypsin from a hog pancreas was purchased from Nacalai Tesque, Kyoto, Japan. The activity of trypsin was measured in 200 mM Tris-HCl buffer, pH 7.8, 20 mM CaCl2 and 385 µM Benzoyl-L-arginine p-nitroanilide monohydrochloride (Bz-L-Arg-pNA·HCl) (Peptide Institute, Osaka, Japan) as a substrate. Prior to addition of the substrate, the inhibitor was preincubated with the enzyme for 10 min at room temperature to allow the establishment of the enzyme–inhibitor complex. The substrate was then added, and after incubation for 60 min at 37 °C, the enzyme activity was measured from the increase in absorbance at 415 nm. The assays were performed using a 384-well microplate and absorbance was measured using a Powerscan 4 plate reader.
as §2, §3

Data set [3] has as its system Tryptase from a human lung. In words: Kinetic analysis of tryptase inhibition (Lineweaver-Burk plot, Morrison's formula). Type of data set: biochemical. As for the experimental part:
as §1
Ki^app was calculated using the Morrison’s formula with GraphPad Prism. The mean value of Km from the kinetic analysis (described in next Section 4.5) was substituted as a constant in the formula.
For kinetic studies of tryptase, inhibition assays were carried out as described in the preceding paragraph. […] The kinetic parameters were calculated by curve fitting using GraphPad Prism.

T1 sequence (P20231 31-275): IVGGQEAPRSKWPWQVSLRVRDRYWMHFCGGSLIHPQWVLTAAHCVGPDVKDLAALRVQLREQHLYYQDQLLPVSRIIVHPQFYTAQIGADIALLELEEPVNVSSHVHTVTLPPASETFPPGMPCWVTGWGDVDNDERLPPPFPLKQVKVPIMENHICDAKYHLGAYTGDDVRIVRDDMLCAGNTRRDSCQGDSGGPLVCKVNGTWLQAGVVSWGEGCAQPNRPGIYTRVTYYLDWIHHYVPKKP
T2 sequence (P00761 9-231): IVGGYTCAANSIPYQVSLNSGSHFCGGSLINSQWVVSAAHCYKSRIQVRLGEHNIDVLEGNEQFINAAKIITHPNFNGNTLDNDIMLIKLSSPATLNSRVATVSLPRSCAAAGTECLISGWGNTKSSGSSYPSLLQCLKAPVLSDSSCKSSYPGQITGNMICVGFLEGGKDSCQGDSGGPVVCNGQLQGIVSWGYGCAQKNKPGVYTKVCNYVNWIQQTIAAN

With `NC(=O)[C@@H]1CCCN1C(=O)[C@H](CCCN=C(N)N)NC(=O)c1ccc2ccccc2c1O` [APC-366], the “adverse effect in treated patients” value in the data set on asthma patients was “caused bronchospasms”.

A word on the IC50: it is the concentration that inhibits the measured activity by half. As for `O=C(O[C@@H]1Cc2c(cc(O)c(C3c4c(O)cc(O)cc4O[C@H](c4ccc(O)c(O)c4)[C@H]3OC(=O)c3cc(O)c(O)c(O)c3)c2O)O[C@@H]1c1ccc(O)c(O)c1)c1cc(O)c(O)c(O)c1` (stereo partly drawn) [PB8GG’, procyanidin B8 3,3′-di-O-gallate], the “inhibition of tryptase activity” value in data set [1] (at 5 μM) was “clearly inhibited”; in data set [1] (at the dose of 1–3 μM) it was “very weakly inhibited”. In addition, in data set [1], the IC50 worked out at 7.78 ± 0.17 µM. Also, in data set [2] (tested at 0.1–100 µM), the “inhibitory activity against trypsin” value was “little inhibitory activity”. Further, the “mode of inhibition of tryptase” value in data set [3] (Lineweaver–Burk plot) is “mixed-type non-competitive”. Moreover, the Ki in data set [3] (Morrison's formula, GraphPad Prism, read-out: inhibition constant Ki app) is 5.02 ± 0.99 µM.

`CC(=O)N[C@@H](CC(C)C)C(=O)N[C@@H](CC(C)C)C(=O)N[C@H](C=O)CCCNC(=N)N` [leupeptin, reference compound]: the IC50 in data set [1] came to 14.9 ± 1.25 µM; in data set [2] (10 min preincubation, mean ± SE (n = 3)) it was 8.4 ± 0.31 µM.

(Values after paper PMC11944477, “Isolation of Allosteric Tryptase Inhibitor from Methanol Extract of Rhubarb and Enhancement of Its Tryptase Inhibitory Activity by Compounds That Were Screened by In Silico Screening” (Molecules, 2025).)
